Test results taken from patent US9862985B2, “Identification and susceptibility of microorganisms by species and strain” (SPECIFIC TECHNOLOGIES LLC, priority 2012, dated 2018).

Assays:
K. pneumoniae IS-007 [1] = assay: Colorimetric sensor array antibiotic susceptibility test on solid growth media; format: cell-based; conditions: vs control without antibiotic
From the text: (§1) To detect a microorganism by species and strain, a sample including the microorganism is placed in a container including culture medium and a colorimetric array, and the temporal response of the sensors to the metabolic products of the microorganism is monitored. Susceptibility can be assessed by inoculating a growth medium including a substance (e.g., an antibiotic) with a microorganism and monitoring the temporal response of the sensors while also monitoring the response of a control (e.g., no antibiotic).
FIG. 8 depicts container 800 configured for use to assess susceptibility of microorganisms. Container 800 includes base 802 and lid 804, with plates 806 positioned in base 802 opposite colorimetric sensor arrays 808 on lid 804. Microorganisms may be placed in contact with growth medium (e.g., a solid growth medium) in plates 806. A substance (e.g., a drug such as an antibiotic) may be added to the growth medium. In one example, rows and columns of plates 802 in container 800 may be used for different microorganisms, different substances (e.g., drugs effective to kill the microorganisms), or different concentrations of substances. After samples are loaded on plates 802, lid 804 is positioned over base 802, such that each colorimetric sensor array 808 is proximate a plate 806. Susceptibility is assessed via temporal response of the sensors in colorimetric sensor arrays. […]

K. pneumoniae IS-020 = conditions: cited from earlier work
K. pneumoniae IS-133 = conditions: cited from earlier work
S. aureus IS-120 [2] = assay: Colorimetric sensor array antibiotic susceptibility test on solid growth media; format: cell-based
From the text: as §1
(§2) FIG. 8 depicts container 800 configured for use to assess susceptibility of microorganisms. Container 800 includes base 802 and lid 804, with plates 806 positioned in base 802 opposite colorimetric sensor arrays 808 on lid 804. Microorganisms may be placed in contact with growth medium (e.g., a solid growth medium) in plates 806. A substance (e.g., a drug such as an antibiotic) may be added to the growth medium. In one example, rows and columns of plates 802 in container 800 may be used for different microorganisms, different substances (e.g., drugs effective to kill the microorganisms), or different concentrations of substances. After samples are loaded on plates 802, lid 804 is positioned over base 802, such that each colorimetric sensor array 808 is proximate a plate 806. Susceptibility is assessed via temporal response of the sensors in colorimetric sensor arrays. Container 800 can be positioned in an apparatus (e.g., apparatus 700) for automated assessment of susceptibility.
(§3) Susceptibility is indicated by a lack of metabolic products compared to controls (no antibiotic).
(§4) In another susceptibility test, three strains of S. aureus were inoculated onto the solid growth media. […] S. aureus IS-124 was susceptible to both antibiotics in agreement with known susceptibility information that this strain is susceptible to Oxacillin and Vancomycin.

S. aureus IS-123 [3] = assay: as above; format: cell-based
From the text: as §1, §2, §3, §4

S. aureus IS-120 [4] = conditions: cited from earlier work
S. aureus IS-123 [5] = conditions: cited from earlier work
S. aureus IS-124 = conditions: concentration not given; cited from earlier work
K. pneumoniae IS-007 [6] = conditions: cited from earlier work
[7] = antibiotic at 1-2 ug/ml in solid growth media
[8] = antibiotic at 2 ug/ml in solid growth media

## C[C@@H](O)[C@H]1C(=O)N2C(C(=O)O)=C(S[C@@H]3CN[C@H](C(=O)N(C)C)C3)[C@H](C)[C@H]12 [Meropenem]
K. pneumoniae IS-007 [1]; antibiotic at 1 ug/ml in solid growth media
  susceptibility or resistance of the strain to the antibiotic: susceptibility
K. pneumoniae IS-020
  concentration at which the strain is susceptible (known susceptibility information): < 0.25 µg/mL
K. pneumoniae IS-133
  concentration below which the strain is resistant (known): below 16 ug/ml

## CN[C@H](CC(C)C)C(=O)N[C@H]1C(=O)N[C@@H](CC(N)=O)C(=O)N[C@H]2C(=O)N[C@H]3C(=O)N[C@H](C(=O)N[C@H](C(=O)O)c4cc(O)cc(O)c4-c4cc3ccc4O)[C@H](O)c3ccc(c(Cl)c3)Oc3cc2cc(c3O[C@@H]2O[C@H](CO)[C@@H](O)[C@H](O)[C@H]2O[C@H]2C[C@](C)(N)[C@H](O)[C@H](C)O2)Oc2ccc(cc2Cl)[C@H]1O [Vancomycin]
S. aureus IS-120 [2]; [7]
  susceptibility or resistance of the strain to the antibiotic: susceptibility
S. aureus IS-123 [3]; [7]
  susceptibility or resistance of the strain to the antibiotic: susceptibility
S. aureus IS-120 [4]; concentration not given
  known susceptibility of the strain to the antibiotic: susceptible
S. aureus IS-123 [5]; concentration not given
  known susceptibility of the strain to the antibiotic: susceptible
S. aureus IS-124
  known susceptibility of the strain to the antibiotic: susceptible

## Cc1onc(-c2ccccc2)c1C(=O)N[C@@H]1C(=O)N2[C@@H]1SC(C)(C)[C@@H]2C(=O)O [Oxacillin]
S. aureus IS-120 [2]; [8]
  susceptibility or resistance of the strain to the antibiotic: resistance
S. aureus IS-123 [3]; [8]
  susceptibility or resistance of the strain to the antibiotic: resistance
S. aureus IS-120 [4]
  concentration below which the strain is resistant (known susceptibility information): below 4 ug/ml
S. aureus IS-123 [5]
  concentration below which the strain is resistant (known susceptibility information): below 4 ug/ml
S. aureus IS-124
  known susceptibility of the strain to the antibiotic: susceptible

## CO/N=C(\C(=O)N[C@@H]1C(=O)N2C(C(=O)[O-])=C(C[N+]3(C)CCCC3)CS[C@H]12)c1csc(N)n1 [Cefepime]
K. pneumoniae IS-007 [1]; antibiotic at 8 ug/ml in solid growth media
  susceptibility or resistance of the strain to the antibiotic: resistance
K. pneumoniae IS-007 [6]
  concentration at which the strain is susceptible (known susceptibility information): < 0.25 µg/mL
  concentration below which the strain is resistant (known susceptibility information): below 64 ug/ml
K. pneumoniae IS-020
  concentration at which the strain is susceptible (known susceptibility information): < 1 µg/mL
K. pneumoniae IS-133
  concentration below which the strain is resistant (known): below 64 ug/ml
